Each structure is given as a SMILES string.

For this assay, the target named is T1, human vasopressin V1a receptor subtype (Homo sapiens, UniProt P37288).
T1 construct: host or cells: CHO cells, stably transfected (pZeoSV vector for the Thibonnier line)
T1 sequence (P37288 whole entry): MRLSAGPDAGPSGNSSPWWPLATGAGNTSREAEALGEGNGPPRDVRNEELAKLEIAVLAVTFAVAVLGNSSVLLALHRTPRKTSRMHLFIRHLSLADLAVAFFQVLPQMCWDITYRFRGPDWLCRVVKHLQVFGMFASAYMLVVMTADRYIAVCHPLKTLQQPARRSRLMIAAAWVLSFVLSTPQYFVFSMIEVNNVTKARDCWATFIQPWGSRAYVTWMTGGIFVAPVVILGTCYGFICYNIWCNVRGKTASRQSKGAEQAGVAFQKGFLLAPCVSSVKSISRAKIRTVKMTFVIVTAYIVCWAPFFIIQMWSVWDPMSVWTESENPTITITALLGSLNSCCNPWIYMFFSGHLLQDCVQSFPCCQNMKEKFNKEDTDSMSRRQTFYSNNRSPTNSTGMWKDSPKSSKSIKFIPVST
In words: Vasopressin binding in CHO cell membranes expressing human vasopressin V1a subtype receptors ([3H]Manning ligand radioligand binding). The following applies: 100 nM. The method, then: Vasopressin Binding in Chinese Hamster Ovary Cell Membranes Expressing Human Vasopressin V1a Subtype Receptors
The trypsin is removed by aspiration and the cells dislodged by tapping. Cell Culture medium (e.g. 30 mL for 1:30 split) is immediately added and mixed well to inactivate trypsin. 1 mL of detached cells is added to new culture flasks containing fresh cell culture medium (e.g., into 25 mL per T-150 flask), and mixed gently. The cells are incubated at 37° C. in 5% CO2. The medium is changed at 3 to 4 days interval (or as appropriate). […] All steps are done under sterile conditions.
The cells are washed twice gently with Hank's Balanced Salt solution (e.g,. use 10 mL per T-150 flask). […] The contents are transferred to centrifuge tubes (50 mL) kept in an ice bath. All subsequent steps are done at 4° C. The tubes are centrifuged at 300×g for 15 min (1380 rpm on SORVAL, Model RT6000D, using the rotor for 50 mL tubes). The supernatant is discarded and the cells suspended in homogenizing buffer(10 mM Tris-HCl containing 0.25 M sucrose and 1 mM EDTA, pH 7.4) ensuring that the volume of the buffer is about ten times the volume of the cell pellet. The cells are pooled into a centrifuge tube (50 mL) and homogenized with Polytron at setting 6 for 10 sec. The homogenate is transferred into a Potter-Elvjehm homogenizer and homogenized with 3 strokes. The homogenate is centrifuged at 1500×g for 10 min at 4° C. (3100 rpm using SORVAL, model RT6000D, using the rotor for 50 mL tubes). The pellet is discarded. The supernatant is centrifuged at 100,000×g for 60 min. at 4° C. (Beckman L8-80M ultracentrifuge; spin at 37,500 rpm with rotor type 70 Ti for 50 mL tubes; 38,000 rpm with type 80Ti for 15 mL tubes; or 35,800 rpm with rotor type 45Ti). The supernantant is discarded and the pellet suspended in 3 to 4 mL of Tris buffer (50 mM TRIS-HCl, pH 7.4). The protein content is estimated by the Bradford or Lowry method. The volume of the membrane suspension is adjusted with the membrane buffer (50 mM Tris-HCl containing 0.1% BSA and 0.1 mM PMSF) to give 3.0 mg/mL (or as appropriate) of protein. The membranes are aliquoted and stored at −70° C.
In wells of a 96-well format microtiter plate, is added 90, 110 or 130 μL (to make up a final volume of 200 μL) of assay buffer containing 50 mM of Tris-HCl (pH 7.4), BSA (heat inactivated, protease-free), […], 1 mg % aprotinin, 1 mg % leupeptin, 2 mg % 1,10-phenanthroline, 10 mg % trypsin inhibitor, and 0.1 mM PMSF. The inhibitors are added on the day of the experiment. The components are mixed at room temperature, and then kept in ice bath following adjustment of the pH to 7.4. […] 20 μL of 50% DMSO is added for Manning and other peptide ligands and the assay buffer volume is adjusted accordingly. To each well is added 50 μL of frozen membrane suspension thawed immediately prior to use and diluted in the assay buffer to the required concentration (equivalent to 25 to 50 μg of protein/well as needed). 20 μL of 8 nM [^3H]Manning ligand in the assay buffer, prepared just before use, is added, and incubated at room temperature for 60 min. shaking the plate on a mechanical shaker for the first 15 min. The incubation is stopped by rapid filtration of the plate contents followed by wash with ice-cold buffer (50 mM Tris-HCl, pH 7.4) using a cell harvester (Tomtek and Printed filtermat-B filter paper). The filter paper is thoroughly dried (7–12 min. in a microwave oven) and impregnated with MeltiLex B/H melt-on scintillation wax sheets and the radioactivity counted in a betaplate scintillation counter.
Binding data is either reported as percent inhibition at a certain concentration or if an IC50 was calculated, as a nanomolar concentration.
In general, inhibition refers to the relative decrease from the control value, in per cent. Consider `COc1cc(C(=O)N2Cc3ccc(C(=O)NCc4cccnc4)n3Cc3ccccc32)ccc1-c1cccc2ccccc12` [Example 44, 10-[3-Methoxy-4-(naphthalen-1-yl)benzoyl]-N-(3-pyridinylmethyl)-10,11-dihydro-5H-pyrrolo[2,1-c][1,4]benzodiazepine-3-carboxamide], for which the inhibition at 0.1 µM is 11%.

As for `COc1ccccc1-c1ccc(C(=O)N2Cc3ccc(C(=O)NCc4cccnc4)n3Cc3ccccc32)cc1OC` [Example 45, 10-[(2,2′-Dimethoxy-[1,1′-biphenyl]-4-yl)carbonyl]-N-(3-pyridinylmethyl)-10,11-dihydro-5H-pyrrolo[2,1-c][1,4]benzodiazepine-3-carboxamide], the inhibition at 0.1 µM was 5%. On to `COc1cccc(-c2ccc(C(=O)N3Cc4ccc(C(=O)NCc5cccnc5)n4Cc4ccccc43)cc2OC)c1` [Example 46, 10-[(2,3′-Dimethoxy-[1,1′-biphenyl]-4-yl)carbonyl]-N-(3-pyridinylmethyl)-10,11-dihydro-5H-pyrrolo[2,1-c][1,4]benzodiazepine-3-carboxamide], for which the inhibition at 0.1 µM was 7%. Turning to `O=C(NCc1cccnc1)c1ccc2n1Cc1ccccc1N(C(=O)c1ccc(-c3cccc4ccccc34)cc1Cl)C2` [Example 47, 10-[2-Chloro-4-(naphthalen-1-yl)benzoyl]-N-(3-pyridinylmethyl)-10,11-dihydro-5H-pyrrolo[2,1-c][1,4]benzodiazepine-3-carboxamide], the inhibition at 0.1 µM is -1%. Regarding `Cc1cc(C(=O)N2Cc3ccc(C(=O)NCc4cccnc4)n3Cc3ccccc32)ccc1-c1ccccc1C(F)(F)F` [Example 48, 10-{[2-Methyl-2′-trifluoromethyl-[1,1′-biphenyl]-4-yl]carbonyl}-N-(3-pyridinylmethyl)-10,11-dihydro-5H-pyrrolo[2,1-c][1,4]benzodiazepine-3-carboxamide], the inhibition at 0.1 µM is 0%. `COc1ccccc1-c1ccc(C(=O)N2Cc3ccc(C(=O)NCCc4ccccn4)n3Cc3ccccc32)cc1C` [Example 49, 10-[(2′-Methoxy-2-methyl-[1,1′-biphenyl]-4-yl)carbonyl]-N-[2-(2-pyridinyl)ethyl]-10,11-dihydro-5H-pyrrolo[2,1-c][1,4]benzodiazepine-3-carboxamide]: the inhibition at 0.1 µM was determined as 1%.

As to `Cc1ccccc1-c1ccc(C(=O)N2Cc3ccc(C(=O)NCCc4ccccn4)n3Cc3ccccc32)cc1C` [Example 50, 10-[(2,2′-Dimethyl-[1,1′-biphenyl]-4-yl)carbonyl]-N-[2-(2-pyridinyl)ethyl]-10,11-dihydro-5H-pyrrolo[2,1-c][1,4]benzodiazepine-3-carboxamide], the inhibition at 0.1 µM stood at 26%. `COc1cccc(-c2ccc(C(=O)N3Cc4ccc(C(=O)NCCc5ccccn5)n4Cc4ccccc43)cc2C)c1` [Example 51, 10-[(3′-Methoxy-2-methyl-[1,1′-biphenyl]-4-yl)carbonyl]-N-[2-(2-pyridinyl)ethyl]-10,11-dihydro-5H-pyrrolo[2,1-c][1,4]benzodiazepine-3-carboxamide]: the inhibition at 0.1 µM amounted to 2%. Take `COc1ccccc1-c1ccc(C(=O)N2Cc3ccc(C(=O)NCCc4ccccn4)n3Cc3ccccc32)cc1` [Example 52, 10-[(2′-Methoxy-[1,1′-biphenyl]-4-yl)carbonyl]-N-[2-(2-pyridinyl)ethyl]-10,11-dihydro-5H-pyrrolo[2,1-c][1,4]benzodiazepine-3-carboxamide]: the inhibition at 0.1 µM was found to be 16%. The same measure, in the same setting: the same measure for `Cc1ccccc1-c1ccc(C(=O)N2Cc3ccc(C(=O)NCCc4ccccn4)n3Cc3ccccc32)cc1` [Example 53, 10-[(2′-Methyl-[1,1′-biphenyl]-4-yl)carbonyl]-N-[2-(2-pyridinyl)ethyl]-10,11-dihydro-5H-pyrrolo[2,1-c][1,4]benzodiazepine-3-carboxamide]: 11%. As to `COc1cc(C(=O)N2Cc3ccc(C(=O)NCCc4ccccn4)n3Cc3ccccc32)ccc1-c1ccccc1C` [Example 54, 10-[(2-Methoxy-2′-methyl-[1,1′-biphenyl]-4-yl)carbonyl]-N-[2-(2-pyridinyl)ethyl]-10,11-dihydro-5H-pyrrolo[2,1-c][1,4]benzodiazepine-3-carboxamide], the inhibition at 0.1 µM came out at 30%. In the case of `COc1cc(-c2ccccc2C)c(Cl)cc1C(=O)N1Cc2ccc(C(=O)NCCc3ccccn3)n2Cc2ccccc21` [Example 55, 10-[(6-Chloro-3-methoxy-2′-methyl-[1,1′-biphenyl]-4-yl)carbonyl]-N-[2-(2-pyridinyl)ethyl]-10,11-dihydro-5H-pyrrolo[2,1-c][1,4]benzodiazepine-3-carboxamide], the inhibition at 0.1 µM was -7%. Turning to `COc1cccc(-c2cc(OC)c(C(=O)N3Cc4ccc(C(=O)NCCc5ccccn5)n4Cc4ccccc43)cc2Cl)c1` [Example 56, 10-[(6-Chloro-3,3′-dimethoxy-[1,1′-biphenyl]-4-yl)carbonyl]-N-[2-(2-pyridinyl)ethyl]-10,11-dihydro-5H-pyrrolo[2,1-c][1,4]benzodiazepine-3-carboxamide], the inhibition at 0.1 µM is -11%. Consider `COc1cc(C(=O)N2Cc3ccc(C(=O)NCCc4ccccn4)n3Cc3ccccc32)ccc1-c1cccc2ccccc12` [Example 57, 10-[3-Methoxy-4-(naphthalen-1-yl)benzoyl]-N-[2-(2-pyridinyl)ethyl]-10,11-dihydro-5H-pyrrolo[2,1-c][1,4]benzodiazepine-3-carboxamide], for which the inhibition at 0.1 µM amounted to 2%. Same read-out and setting: the value for `COc1ccccc1-c1ccc(C(=O)N2Cc3ccc(C(=O)NCCc4ccccn4)n3Cc3ccccc32)cc1OC` [Example 58, 10-[(2,2′-Dimethoxy-[1,1′-biphenyl]-4-yl)carbonyl]-N-[2-(2-pyridinyl)ethyl]-10,11-dihydro-5H-pyrrolo[2,1-c][1,4]benzodiazepine-3-carboxamide] was 9%; that for `COc1cccc(-c2ccc(C(=O)N3Cc4ccc(C(=O)NCCc5ccccn5)n4Cc4ccccc43)cc2OC)c1` [Example 59, 10-[(2,3′-Dimethoxy-[1,1′-biphenyl]-4-yl)carbonyl]-N-[2-(2-pyridinyl)ethyl]-10,11-dihydro-5H-pyrrolo[2,1-c][1,4]benzodiazepine-3-carboxamide] was 12%. Still for that read-out and setting: the value for `O=C(NCCc1ccccn1)c1ccc2n1Cc1ccccc1N(C(=O)c1ccc(-c3cccc4ccccc34)cc1Cl)C2` [Example 60, 10-[2-Chloro-4-(naphthalen-1-yl)benzoyl]-N-[2-(2-pyridinyl)ethyl]-10,11-dihydro-5H-pyrrolo[2,1-c][1,4]benzodiazepine-3-carboxamide] was 4%. As to `Cc1cc(C(=O)N2Cc3ccc(C(=O)NCCc4ccccn4)n3Cc3ccccc32)ccc1-c1ccccc1C(F)(F)F` [Example 61, 10-{[2-Methyl-2′-trifluoromethyl=[1,1′-biphenyl]-4-yl]carbonyl}-N-[2-(2-pyridinyl)ethyl]-10,11-dihydro-5H-pyrrolo[2,1-c][1,4]benzodiazepine-3-carboxamide], the “V1a % inhibition @ 100 nM” value turned out to be 6%.

For the molecule `COc1ccccc1-c1ccc(C(=O)N2Cc3ccc(C(=O)N(C)CCc4ccccn4)n3Cc3ccccc32)cc1OC` [Example 64, 10-[(2,2′-Dimethoxy-[1,1′-biphenyl]-4-yl)carbonyl]-N-methyl-N-[2-(2-pyridinyl)ethyl]-10,11-dihydro-5H-pyrrolo[2,1-c][1,4]benzodiazepine-3-carboxamide], the inhibition at 0.1 µM was found to be 21%. With `COc1cc(C(=O)N2Cc3ccc(C(=O)N4CCN(c5ccccn5)CC4)n3Cc3ccccc32)ccc1-c1cccc2ccccc12` [Example 83], the “V1a % inhibition @ 100 nM” value is 9%.

The values above are taken from patent US7064120B2, “Tricyclic pyridyl carboxamides and derivatives thereof tocolytic oxytocin receptor antagonists” (Wyeth, priority 2001, dated 2006).
